Measured values: publication PMC11490992 (Microbial Cell Factories, 2024)
In brackets after ≈: the same amount, converted by molar mass.

Target: α-glucosidase
Experiment: in vitro α-glucosidase inhibition assay, triplicate, serial dilutions
Format: biochemical

- IC50 (μg/mL)^a: 86.21 µg/mL (≈ 384 µM)
Structure (SMILES): CC(C)=CCc1ccc2c(CC#N)c[nH]c2c1 [compound 2, 3-cyanomethyl-6-prenylindole]
